Read-outs that look alike come from different tables or passages of the source.
Tests used:
HCT116 cells = assay: Cytotoxicity in vitro, HCT116 (CellTiter 96 Aqueous One Solution); type: cell-based, human; settings: Homo sapiens, HCT-116, 72 h incubation
Excerpt: The compounds of the present invention are small molecules of formula (I), characterised by the presence of a metal chelating moiety, the benzohydroxamate, an α-aminoacidic N-acylated central core and an α,β-unsaturation at the acyl-moiety. This particular structural feature seems responsible for the high inhibitory activity on cancer stem cell lines and on HCT116 cells (ATCC CCL-247), a human colorectal carcinoma cell line widely used in cancer biology both in vitro and in vivo (Botchkina Cancer Genom Proteom 6, 19-30, 2009; Yeung PNAS 107, 3722-3727, 2010).
(§1) The cytotoxicity activity was evaluated as follows: • Pre-B leukemia cell line 697 was seeded at 2×10^5 c/well; • Colon carcinoma cell lines HCT116, HT29 and COLO2015 were seeded at 4×10^3, 4×10^3 and 10×10^3 c/well respectively; • Primary human kidney cells were seeded at 1.5×10^3 and 6.5×10^3 in two separate experiments; • Human PBMC were seeded at 5×10^5 c/well; • Colon cancer stem cells (CSC) were seeded at 3×10^3;
(§2) Testing compounds were added after 24 h and incubated for 72 h (48 h for 697 cell line). The concentrations of molecules ranged from 10000 nM to 1.5 nM (10000 to 1 nM for 697 cell line). The cytotoxic activity of compounds was evaluated using the CellTiter 96® Aqueous One Solution Cell Proliferation Assay (Promega) which measures the functionality of mitochondria according to manufacturer's instructions. For Colon cancer stem cells viability was determined with CellTiter-Glo Luminescent cell viability assay (Promega).
(§3) The activity of compounds at any dose is calculated as percentage of inhibition versus vehicle-treated control (=0). The IC50s are extrapolated from the inhibition dose/response curve using GraphPad Prism program.

[1] = test system: Colon cancer stem cells (CSC) CSC1; assay: Cytotoxicity in vitro, colon cancer stem cells CSC1 (CellTiter-Glo); type: cell-based; settings: 72 h incubation
Protocol: as §1, §2, §3

[2] = test system: Pre-B leukemia cell line 697; assay: Primary cytotoxicity screening, 697 cell line (CellTiter 96); type: cell-based; settings: Table 1; 48 h incubation; read-out: CyTox697
Protocol: as §1, §2, §3

[3] = test system: Primary human kidney cells; assay: Cytotoxicity in vitro, primary renal cells (CellTiter 96); type: cell-based
Protocol: as §1, §2
(§4) The compound cytotoxicity was confirmed by further assays on two other colon cancer cell lines HT29 (ATCC HTB38) and Colo205 (ATCC CCL222) and on colon cancer stem cells (CSCs) (see table 2 and 3). It is worth noting that cytotoxic activity toward human primary kidney cells and peripheral blood mononuclear cells (PBMC) isolated from healthy donors was lower compared to tumor cells cytotoxicity (see table 4).
as §3

[4] = test system: COLO205 colon cancer cell line; assay: Cytotoxicity in vitro, COLO205 (CellTiter 96); type: cell-based; settings: Homo sapiens, COLO 205; 72 h incubation; read-out: COLO205 IC 50
Protocol: as §1, §2, §4, §3

[5] = test system: HT29 colon cancer cell line; assay: Cytotoxicity in vitro, HT29 (CellTiter 96); type: cell-based; settings: Homo sapiens, HT-29; 72 h incubation; read-out: HT29 IC 50
Protocol: as §1, §2, §4, §3

[6] = test system: Colon cancer stem cells (CSC) CSC3; assay: Cytotoxicity in vitro, colon cancer stem cells CSC3 (CellTiter-Glo); type: cell-based; settings: 72 h incubation; read-out: CSC3 IC 50
Protocol: as §1, §2, §3

HCT116 xenograft = assay: Antitumor activity in vivo, sc xenograft model of colon cancer; parameters: species or system CD1 nude female mice; settings: ip
Protocol: Female CD-1 nude mice, 5 weeks of age and 20 to 22 g of weight, were housed in the animal house of the Italfarmaco Research Centre. Mice were maintained in micro isolator cages and supplied with sterile food and water under standard conditions.
Xenografts were generated by sc injection of 7×10^6 HCT116 cells in the right flank of the animals.
Tumor sizes were determined by caliper measurements and tumor volumes were calculated according to the following formula: Tumor volume (mm^3)=(w2×1)/2 where “w” is the width and “l” is the length of the carcinoma in mm.
Tumor growth was followed by volume measurement three times a week.
Tumor mass reached a measurable size three weeks after transplantation, at this time, treatments began.
Two reference compounds were also used in the experiment. The cinnamic hydroxamic acid panobinostat and 5-FU. The compounds were administered at the MTD according to previous experiments or as described in the literature.

[7] = test system: Colon cancer stem cells (CSC) CSC2; assay: Cytotoxicity in vitro, colon cancer stem cells CSC2 (CellTiter-Glo); type: cell-based; settings: 72 h incubation; read-out: CSC2 IC 50
Protocol: as §1, §2, §3

Human PBMC = assay: Cytotoxicity in vitro, PBMC from healthy donors (CellTiter 96); type: cell-based
Protocol: as §1, §2, §4, §3

[8] = Renal.ep1, 72 h incubation, read-out: Renal.ep1 IC 50
[9] = Table 2, read-out: HCT-116 IC 50
[10] = PBMC 1, 72 h incubation, read-out: PBMC 1 IC 50
[11] = PBMC 2, 72 h incubation, read-out: PBMC 2 IC 50
[12] = Renal.ep2, 72 h incubation, read-out: Renal.ep2 IC 50

Row | Structure (SMILES) | IC50 (HCT116 cells; Table 1, read-out: HCT116) [nM] | IC50 ([1]; Table 1, read-out: CSC1) [nM] | IC50 [2] [nM] | further results
1 | O=C(CCc1ccccc1)N[C@@H](Cc1ccccc1)C(=O)Nc1ccc(C(=O)NO)cc1 | 806 | 332 | 770 | –
2 | O=C(NO)c1ccc(NC(=O)[C@H](Cc2ccccc2)NC(=O)c2ccc3c(c2)OCO3)cc1 | 79 | – | 18 | –
3 | COc1ccc(C[C@H](NC(=O)CCc2ccccc2)C(=O)Nc2ccc(C(=O)NO)cc2)cc1 | 431 | 136 | 53 | –
4 | COc1ccc(C[C@H](NC(=O)/C=C/c2ccc3c(c2)OCO3)C(=O)Nc2ccc(C(=O)NO)cc2)cc1 [drawing 46] | 18 | 192 | 3 | –
5 | COc1ccc(C[C@H](NC(=O)/C=C/c2ccccc2)C(=O)Nc2ccc(C(=O)NO)cc2)cc1 [drawing 50] | 13 | 40 | 22 | –
6 | COc1ccc(C[C@H](NC(=O)Cc2ccccc2)C(=O)Nc2ccc(C(=O)NO)cc2)cc1 | 316 | 160 | 72 | –
7 | COc1ccc(C[C@H](NC(=O)c2ccc3c(c2)OCO3)C(=O)Nc2ccc(C(=O)NO)cc2)cc1 | 24 | 24 | 21 | –
8 | O=C(/C=C/c1ccc2c(c1)OCO2)N[C@@H](Cc1ccccc1)C(=O)Nc1ccc(C(=O)NO)cc1 [Compound 4D, (2S)-2-[[(E)-3-(1,3-benzodioxol-5-yl)prop-2-enoyl]amino]-N-[4-(hydroxycarbamoyl)phenyl]-3-phenyl-propanamide] | – | – | – | IC50 [3, 8]: 778 nM; IC50 [4]: 201 nM; IC50 (HCT116 cells; [9]): 19 nM; IC50 [5]: 215 nM; IC50 [6]: 91 nM; % inhib tumor vs CTRL after 44 days of treatment (HCT116 xenograft; 5 mg/kg): 54%; % inhib tumor vs CTRL after 44 days of treatment (HCT116 xenograft; 10 mg/kg): 39%; IC50 ([1]; Table 3, read-out: CSC1 IC 50): 13 nM; IC50 [7]: 102 nM; IC50 (Human PBMC; [10]): 359 nM; IC50 (Human PBMC; [11]): 601 nM
9 | O=C(Cc1ccccc1)N[C@@H](Cc1ccccc1)C(=O)Nc1ccc(C(=O)NO)cc1 | 237 | 192 | 90 | –
10 | O=C(/C=C/c1ccc2c(c1)OCO2)N[C@@H](Cc1ccccc1)C(=O)Nc1ccc(C(=O)NO)cc1 [drawing 55] | 11 | 37 | 85 | –
11 | O=C(COc1ccccc1)N[C@@H](Cc1ccccc1)C(=O)Nc1ccc(C(=O)NO)cc1 | 466 | 424 | 59 | –
12 | COc1ccc(C[C@H](NC(=O)Cc2ccc3c(c2)OCO3)C(=O)Nc2ccc(C(=O)NO)cc2)cc1 | 554 | 280 | 168 | –
13 | COc1ccc(C[C@H](NC(=O)CCc2ccc3c(c2)OCO3)C(=O)Nc2ccc(C(=O)NO)cc2)cc1 | 702 | 400 | 496 | –
14 | O=C(/C=C/c1ccccc1)N[C@@H](Cc1ccccc1)C(=O)Nc1ccc(C(=O)NO)cc1 [drawing 59] | 10 | 73 | 45 | –
15 | O=C(CCc1ccc2c(c1)OCO2)N[C@@H](Cc1ccccc1)C(=O)Nc1ccc(C(=O)NO)cc1 | 900 | 336 | 203 | –
16 | O=C(Cc1ccc2c(c1)OCO2)N[C@@H](Cc1ccccc1)C(=O)Nc1ccc(C(=O)NO)cc1 | 1070 | 208 | 127 | –
17 | O=C(NO)c1ccc(NC(=O)[C@H](Cc2ccccc2)NC(=O)c2ccccc2)cc1 | 184 | 96 | 105 | –
18 | COc1ccc(C[C@H](NC(=O)c2ccccc2)C(=O)Nc2ccc(C(=O)NO)cc2)cc1 | 76 | 48 | 54 | –
19 | COc1ccc(C[C@H](NC(=O)/C=C/c2ccc3c(c2)OCO3)C(=O)Nc2ccc(C(=O)NO)cc2)cc1 [Compound 1D, (2S)-2-[[(E)-3-(1,3-benzodioxol-5-yl)prop-2-enoyl]amino]-N-[4-(hydroxycarbamoyl)phenyl]-3-(4-methoxyphenyl)propanamide] | – | – | – | IC50 [3, 8]: 462 nM; IC50 [3, 12]: 321 nM; IC50 [4]: 146 nM; IC50 (HCT116 cells; [9]): 18 nM; IC50 [5]: 157 nM; IC50 [6]: 85 nM; % inhib tumor vs CTRL after 44 days of treatment (HCT116 xenograft; 0.5 mg/kg): 23%; % inhib tumor vs CTRL after 44 days of treatment (HCT116 xenograft; 1 mg/kg): 22%; IC50 ([1]; Table 3, read-out: CSC1 IC 50): 19 nM; IC50 [7]: 114 nM; IC50 (Human PBMC; [10]): 80 nM; IC50 (Human PBMC; [11]): 152 nM
20 | O=C(/C=C/c1ccccc1)N[C@@H](Cc1ccccc1)C(=O)Nc1ccc(C(=O)NO)cc1 [Compound 5D, (2S)—N-[4-(hydroxycarbamoyl)phenyl]-3-phenyl-2-[[(E)-3-phenyl-2-enoyl]amino]propanamide] | – | – | – | IC50 [3, 8]: 1060 nM; IC50 [3, 12]: 511 nM; IC50 [4]: 221 nM; IC50 (HCT116 cells; [9]): 14 nM; IC50 [5]: 197 nM; IC50 [6]: 230 nM; % inhib tumor vs CTRL after 44 days of treatment (HCT116 xenograft; 5 mg/kg): 46%; IC50 ([1]; Table 3, read-out: CSC1 IC 50): 26 nM; IC50 [7]: 102 nM; IC50 (Human PBMC; [10]): 147 nM; IC50 (Human PBMC; [11]): 595 nM
21 | COc1ccc(C[C@H](NC(=O)/C=C/c2ccccc2)C(=O)Nc2ccc(C(=O)NO)cc2)cc1 [Compound 2D, (2S)—N-[4-(hydroxycarbamoyl)phenyl]-3-(4-methoxyphenyl)-2-[[(E)-3-phenylprop-2-enoyl]amino]propanamide] | – | – | – | IC50 [4]: 73 nM; IC50 (HCT116 cells; [9]): 14 nM; IC50 [5]: 61 nM; IC50 [6]: 70 nM; % inhib tumor vs CTRL after 44 days of treatment (HCT116 xenograft; 1 mg/kg): 33%; IC50 ([1]; Table 3, read-out: CSC1 IC 50): 50 nM; IC50 [7]: 100 nM; IC50 (Human PBMC; [10]): 89 nM; IC50 (Human PBMC; [11]): 42 nM
22 | Cc1[nH]c2ccccc2c1CCNCc1ccc(/C=C/C(=O)NO)cc1 [Panobinostat, panobinostat, reference compound] | – | – | – | % inhib tumor vs CTRL after 44 days of treatment (HCT116 xenograft; 1 mg/kg): 34%
23 | COc1ccc(C[C@H](NC(=O)COc2ccccc2)C(=O)Nc2ccc(C(=O)NO)cc2)cc1 | 194 | – | 44 | –
24 | O=c1[nH]cc(F)c(=O)[nH]1 [Compound 5-FU, 5-FU, reference compound] | – | – | – | % inhib tumor vs CTRL after 44 days of treatment (HCT116 xenograft; 10 mg/kg): 36%; % inhib tumor vs CTRL after 44 days of treatment (HCT116 xenograft; 70 mg/kg, once a week): 61%
